Measurements as given in ChEMBL document CHEMBL4002647, “BMS-933043, a Selective α7 nAChR Partial Agonist for the Treatment of Cognitive Deficits Associated with Schizophrenia” (ACS Med Chem Lett, 2017).

Key:
[1] = biological target: Neuronal acetylcholine receptor subunit alpha-7 (Rattus norvegicus, UniProt Q05941); test: Agonist activity at rat alpha7 nAChR expressed in HEK293 cells assessed as increase in Ca2+ flux by Fluo-4 AM dye based FLIPR assay; assay type: cell-based
[2] = Drug level treated with (2R)-N-(6-(1H-Imidazol-1-yl)-4-pyrimidinyl)-4'H-spiro[4-azabicyclo[2.2.2]octane-2,5'-[1,3]oxazol]-2'-amine

Chain of Neuronal acetylcholine receptor subunit alpha-7 (Q05941 whole entry): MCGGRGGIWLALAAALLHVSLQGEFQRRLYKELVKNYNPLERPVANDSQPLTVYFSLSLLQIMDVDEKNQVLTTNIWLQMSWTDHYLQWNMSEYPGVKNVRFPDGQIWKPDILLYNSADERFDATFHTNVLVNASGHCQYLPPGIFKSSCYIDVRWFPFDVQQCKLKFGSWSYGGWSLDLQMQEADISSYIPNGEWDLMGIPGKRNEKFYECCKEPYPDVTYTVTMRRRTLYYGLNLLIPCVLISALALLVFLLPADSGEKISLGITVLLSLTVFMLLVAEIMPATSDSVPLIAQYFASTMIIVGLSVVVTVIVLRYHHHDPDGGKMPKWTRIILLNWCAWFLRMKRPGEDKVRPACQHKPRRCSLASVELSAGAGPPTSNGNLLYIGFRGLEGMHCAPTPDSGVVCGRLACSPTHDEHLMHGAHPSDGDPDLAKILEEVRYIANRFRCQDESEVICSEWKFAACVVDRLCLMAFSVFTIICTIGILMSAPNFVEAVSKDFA

For `[O-][N+]12CCC(CC1)C1(CN=C(Nc3cc(-n4ccnc4)ncn3)O1)C2` (single isomer, unassigned), the EC50 [1] was greater than 50 µM and the Drug metabolism [2] was “Metabolite detected”.
